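Step 1: Grow cells in 96-well plates. Step 2: Expose to compound for 48 hours at 5 concentrations. Step 3: Interpolate endpoints linearly; if unreached, use highest concentration. GI50 is the concentration that inhibits growth by half.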 Activity calls are given as the source filed them. Cut-off read from the data, not from the text of the source: active = GI50 up to about 1.1 µM and inactive = higher.
Key:
Assay in all cases: DTP human tumour cell line panel, 48 h
SNB-78 = test system: SNB-78
786-0 = test system: 786-0
EKVX = test system: EKVX
A549 = test system: A549
SF-539 = test system: SF-539
COLO 205 = test system: COLO 205
HL-60 = test system: HL-60
HT-29 = test system: HT-29
LXFL 529 = test system: LXFL 529
XF498 = test system: XF498
RPMI-8226 = test system: RPMI-8226
KM12 = test system: KM12
UO-31 = test system: UO-31
M19-MEL = test system: M19-MEL
SN12C = test system: SN12C
SF-268 = test system: SF-268
OVCAR-8 = test system: OVCAR-8

Measured: GI50

COc1cc(C=C2C(=O)NC(=O)NC2=O)cc(OC)c1OC
inactive: SNB-78 > 100 µM | 786-0 > 100 µM | EKVX > 100 µM | A549 > 100 µM | SF-539 > 100 µM | COLO 205 > 100 µM | HL-60 > 100 µM | HT-29 > 100 µM | LXFL 529 > 100 µM | XF498 > 100 µM | RPMI-8226 > 100 µM | KM12 > 100 µM | UO-31 > 100 µM | M19-MEL > 100 µM | SN12C > 100 µM | SF-268 > 100 µM | OVCAR-8 > 100 µM

CCOC(=O)C12CN(C34CC5CC(CC(C5)C3)C4)CC(C(=O)OCC)(C1=O)C(c1ccccc1)OC2c1ccccc1 (stereo not drawn)
inactive: SNB-78 > 100 µM | 786-0 > 100 µM | EKVX > 100 µM | A549 > 100 µM | SF-539 > 10 µM | COLO 205 > 100 µM | HL-60 9.25 µM | HT-29 61 µM | LXFL 529 31.3 µM | XF498 > 100 µM | RPMI-8226 16.5 µM | KM12 > 100 µM | UO-31 > 100 µM | M19-MEL > 100 µM | SN12C > 10 µM | SF-268 > 100 µM | OVCAR-8 > 100 µM

O=C(Nc1ccccc1-c1nn(C(=S)Nc2ccccc2)c(=S)n(C(=S)Nc2ccccc2)c1=O)C(F)(F)F
inactive: SNB-78 35.4 µM | 786-0 32.1 µM | EKVX 27.6 µM | A549 24.4 µM | SF-539 36.1 µM | COLO 205 17.5 µM | HL-60 20.9 µM | HT-29 27.7 µM | LXFL 529 17.1 µM | XF498 23.1 µM | RPMI-8226 11.1 µM | KM12 17.3 µM | UO-31 11.9 µM | M19-MEL 28.2 µM | SN12C 26.4 µM | SF-268 26.5 µM | OVCAR-8 23.9 µM

O=c1[nH]c(=O)n(C2OC(CO)C(O)C2O)cc1OCC(F)(F)F (stereo not drawn)
inactive: SNB-78 > 100 µM | 786-0 > 100 µM | EKVX > 100 µM | A549 > 100 µM | SF-539 > 100 µM | COLO 205 > 100 µM | HL-60 > 100 µM | HT-29 > 100 µM | LXFL 529 > 100 µM | XF498 > 100 µM | RPMI-8226 > 100 µM | KM12 > 100 µM | UO-31 > 100 µM | M19-MEL > 100 µM | SN12C > 100 µM | SF-268 > 100 µM | OVCAR-8 > 100 µM
